For series [1] the following is noted: vanadium(iv) ion chelation; cited from earlier work.
For series [2] the following is noted: vs. SHE in DMSO; cited from earlier work.
A short description of series [3]: Cyclic voltammetry of AQS (Randles-Sevcik analysis). The series is classed as physicochemical. As to the method:
Cyclic voltammetry was performed at room temperature in inert atmosphere of dinitrogen using three electrode cell on a VersaSTAT3 workstation. (Princeton Applied Research, USA). Glassy carbon (3 mm, Basi) was employed as working electrode and platinum wire was used as counter electrode. Ag wire was used as pseudo reference electrode with Fc/Fc^+ couple as an internal standard for initial redox potential evaluation. Subsequently, all potentials were referenced to SHE. Diffusion coefficient was calculated using Randles-Sevcik equation as follow.
where, ip is the peak current, n is number electron in redox reaction, F is faraday constant, A is geometrical surface area of electrode, C is the bulk concentration of analyte, ν is scan rate, D is diffusion coefficient and R and T are gas constant and absolute temperature. CV curves were obtained at various scan rate and peak current were plotted against square root of scan rate. Slope (m) of the linear fit was used to determine diffusion coefficient using following equation.

Series [4] can be described thus: Solubility of AQS ionic derivatives in MeCN, measured by UV-vis (Beer's law). The series is classed as physicochemical. Conditions: cooled to room temperature after stirring at 40° C. An excerpt:
Beer's law was used to measure the concentration of the solution using pre-determined molar extinction coefficient using standard calibration curve.

On to `C[C@@H](C(=O)[O-])N(O)[C@@H](C)C(=O)[O-].C[C@@H](C(=O)[O-])N(O)[C@@H](C)C(=O)[O-].[V+4]` [Amavadin], for which, in series [1], the “log equilibrium constant (log Keq), stability constant” value is reported as 23. For “vanadium(IV/V)bis-hydroxyiminodiacetate [VBH]”, the “E° (standard potential)” value in series [2] was 0.30 V. As to `O=C1c2ccccc2C(=O)c2cc(S(=O)(=O)O)ccc21` [AQS, Anthraquinone 2-sulfonate], in series [3] (CV at various scan rates, Randles-Sevcik plot), the diffusion coefficient was 8.46×10^−6 cm^2 s^−1. In addition, in series [3] (vs SHE), the “potential of first electrochemically reversible wave (1^−/2^− couple)” value was −0.6 V and the “potential of second electrochemically reversible wave (2^−/3^− couple)” value is on record as −1.2 V.

In general, Solubility refers to the dissolved amount per volume that the medium holds. Lower therefore signals a poorly soluble substance. `CCCC[N+](CCCC)(CCCC)CCCC.O=C1c2ccccc2C(=O)c2cc(S(=O)(=O)[O-])ccc21` [N4444AQS] returned a Solubility in series [4] of 1260 mM.

For orientation: solubility means the concentration that dissolves in the medium under given conditions. For `O=C1c2ccccc2C(=O)c2cc(S(=O)(=O)[O-])ccc21.[Na+]` [NaAQS, sodium anthraquinone-2-sulfonate, reference compound], the solubility at 15 min in series [4] (MeCN (acetonitrile), organic solvent or mixture, thermodynamic from solid) was less than 1 mM. In series [4], `O=C1c2ccccc2C(=O)c2ccccc21` [AQ, reference compound] had a Solubility of less than 5 mM. The same measure, in the same setting: then `CC[N+](CC)(CC)CC.O=C1c2ccccc2C(=O)c2cc(S(=O)(=O)[O-])ccc21` [N2222AQS], with 105 mM. Same read-out and setting: the same measure for `CCC[N+](CCC)(CCC)CCC.O=C1c2ccccc2C(=O)c2cc(S(=O)(=O)[O-])ccc21` [N3333AQS]: 640 mM.
